Measurements taken from ChEMBL document CHEMBL1156113, “Synthesis of new sugar derivatives and evaluation of their antibacterial activities against Mycobacterium tuberculosis” (Bioorg Med Chem Lett, 2009).
≈ marks a conversion by molar mass, not a printed value.

Experiments:
[1] = microbe, parasite or virus in culture; assay type: functional, Mycobacterium bovis BCG str. Tokyo 172; settings: Mycobacterium tuberculosis variant bovis BCG
Description: (§1) Antibacterial activity against Mycobacterium bovis BCG str. Tokyo 172 by broth dilution method

[2] = system: Mycobacterium tuberculosis; experiment: Antituberculosis activity against Mycobacterium tuberculosis H37Rv by broth dilution method; assay type: functional
[3] = system: Mycolicibacterium smegmatis; experiment: Antibacterial activity against Mycobacterium smegmatis by broth dilution method; assay type: functional
[4] = system: Mycobacterium avium; experiment: Antibacterial activity against Mycobacterium avium SmO by broth dilution method; assay type: functional
[5] = system: Escherichia coli; experiment: Antibacterial activity against Escherichia coli by broth dilution method; assay type: functional
[6] = system: Staphylococcus aureus; experiment: Antibacterial activity against Staphylococcus aureus by broth dilution method; assay type: functional
[7] = system: Mycobacterium avium; experiment: Antibacterial activity against Mycobacterium avium 724S by broth dilution method; assay type: functional
[8] = system: Mycobacterium avium; settings: SmO
[9] = system: Mycobacterium bovis BCG str. Tokyo 172
Description: as §1

[10] = system: Mycobacterium avium; settings: 724S
[11] = system: Staphylococcus aureus
[12] = system: Escherichia coli
[13] = system: Mycolicibacterium smegmatis
[14] = system: Mycobacterium tuberculosis; settings: H37Rv
[15] = Selectivity for Mycobacterium tuberculosis H37Rv over human A549 cells; parameters: reference not given here
[16] = Selectivity for Mycobacterium tuberculosis H37Rv over human THP1 cells; parameters: species or system THP-1; reference not given here
[17] = Selectivity for Mycobacterium tuberculosis H37Rv over human MRC5 cells; parameters: reference not given here
[18] = system: Mycobacterium tuberculosis; experiment: Antimycobacterial activity against drug-susceptive Mycobacterium tuberculosis isolate A-3-2 by agar proportion method; assay type: functional
[19] = system: Mycobacterium tuberculosis; experiment: Antimycobacterial activity against drug-susceptive Mycobacterium tuberculosis isolate A-3-20 by agar proportion method; assay type: functional
[20] = system: Mycobacterium tuberculosis; experiment: Antimycobacterial activity against drug-susceptive Mycobacterium tuberculosis isolate A-1-2 by agar proportion method; assay type: functional
[21] = system: Mycobacterium tuberculosis; experiment: Antimycobacterial activity against drug-susceptive Mycobacterium tuberculosis isolate A-3-1 by agar proportion method; assay type: functional
[22] = system: Mycobacterium tuberculosis; experiment: Antimycobacterial activity against drug-susceptive Mycobacterium tuberculosis isolate A-3-13 by agar proportion method; assay type: functional
[23] = system: Mycobacterium tuberculosis; experiment: Antimycobacterial activity against drug-susceptive Mycobacterium tuberculosis isolate A-1-1 by agar proportion method; assay type: functional
[24] = system: Mycobacterium tuberculosis; experiment: Antimycobacterial activity against drug-susceptive Mycobacterium tuberculosis isolate A-3-5 by agar proportion method; assay type: functional
[25] = system: Mycobacterium tuberculosis; experiment: Antimycobacterial activity against drug-susceptive Mycobacterium tuberculosis isolate A-3-15 by agar proportion method; assay type: functional
[26] = system: Mycobacterium tuberculosis; experiment: Antimycobacterial activity against drug-susceptive Mycobacterium tuberculosis isolate A-3-17 by agar proportion method; assay type: functional
[27] = system: Mycobacterium tuberculosis; experiment: Antimycobacterial activity against drug-susceptive Mycobacterium tuberculosis isolate A-2-5 by agar proportion method; assay type: functional
[28] = system: Mycobacterium tuberculosis; experiment: Antimycobacterial activity against drug-susceptive Mycobacterium tuberculosis isolate A-3-19 by agar proportion method; assay type: functional
[29] = system: Mycobacterium tuberculosis; experiment: Antimycobacterial activity against drug-susceptive Mycobacterium tuberculosis isolate A-1-3 by agar proportion method; assay type: functional
[30] = system: Mycobacterium tuberculosis; experiment: Antimycobacterial activity against drug-susceptive Mycobacterium tuberculosis isolate A-3-6 by agar proportion method; assay type: functional
[31] = system: Mycobacterium tuberculosis; experiment: Antimycobacterial activity against drug-susceptive Mycobacterium tuberculosis isolate A-3-9 by agar proportion method; assay type: functional
[32] = system: Mycobacterium tuberculosis; experiment: Antimycobacterial activity against drug-susceptive Mycobacterium tuberculosis isolate A-3-16 by agar proportion method; assay type: functional
[33] = system: Mycobacterium tuberculosis; experiment: Antimycobacterial activity against drug-susceptive Mycobacterium tuberculosis isolate A-3-21 by agar proportion method; assay type: functional
[34] = system: Mycobacterium tuberculosis; experiment: Antimycobacterial activity against drug-susceptive Mycobacterium tuberculosis isolate A-3-22 by agar proportion method; assay type: functional
[35] = system: Mycobacterium tuberculosis; experiment: Antimycobacterial activity against drug-susceptive Mycobacterium tuberculosis isolate A-3-12 by agar proportion method; assay type: functional
[36] = system: Mycobacterium tuberculosis; experiment: Antimycobacterial activity against drug-susceptive Mycobacterium tuberculosis isolate A-3-11 by agar proportion method; assay type: functional

Compound | MIC [1] | MIC [2] | MIC [3] | MIC [4] | MIC [5] | MIC [6] | MIC [7] | Ratio [15] | Ratio [16] | Ratio [17] | other results
CNC.Cl [DIMETHYLAMINE HCL] | > 100 µg/mL | > 100 µg/mL | > 100 µg/mL | – | – | – | – | – | – | – | –
Nc1ccc(C(=O)O)c(O)c1 [AMINOSALICYLIC ACID] | 50 µg/mL (≈ 327 µM) | 0.16 µg/mL (≈ 1.04 µM) | 1000 µg/mL (≈ 6530 µM) | 100 µg/mL (≈ 653 µM) | > 100 µg/mL | > 100 µg/mL | 100 µg/mL (≈ 653 µM) | – | – | – | –
CC(=O)N[C@@H]1[C@@H](OC(C)=O)[C@H](OC(C)=O)[C@@H](COC(C)=O)O[C@H]1SC(=S)N(C)C | > 100 µg/mL | > 100 µg/mL | > 100 µg/mL | > 100 µg/mL | > 100 µg/mL | > 100 µg/mL | > 100 µg/mL | – | – | – | –
GENTAMICIN | – | – | – | – | – | – | – | – | – | – | MIC [8]: 1.56 µg/mL; MIC [9]: 1.56 µg/mL; MIC [10]: 25 µg/mL; MIC [11]: 25 µg/mL; MIC [12]: 6.25 µg/mL; MIC [13]: 1.56 µg/mL; MIC [14]: 3.13 µg/mL
NNC(=O)c1ccncc1 [ISONIAZID] | 0.04 µg/mL (≈ 0.292 µM) | 0.04 µg/mL (≈ 0.292 µM) | 6.25 µg/mL (≈ 45.6 µM) | 3.13 µg/mL (≈ 22.8 µM) | > 100 µg/mL | > 100 µg/mL | 50 µg/mL (≈ 365 µM) | 77277 | 53613 | 7325 | –
CN(C)C(=S)[S-].[Na+] [SODIUM DIMETHYLCARBAMODITHIOATE] | 0.78 µg/mL | 0.78 µg/mL | > 100 µg/mL | – | > 100 µg/mL | > 100 µg/mL | – | 318 | 88 | 14 | –
CC(=O)N[C@H]1[C@@H](O)[C@H](O)[C@@H](CO)O[C@@H]1SC(=S)N(C)C | > 100 µg/mL | > 100 µg/mL | > 100 µg/mL | > 100 µg/mL | > 100 µg/mL | > 100 µg/mL | > 100 µg/mL | – | – | – | –
CO[C@H]1/C=C/O[C@@]2(C)Oc3c(C)c(O)c4c(O)c(c(/C=N/N5CCN(C)CC5)c(O)c4c3C2=O)NC(=O)/C(C)=C\C=C\[C@H](C)[C@H](O)[C@@H](C)[C@@H](O)[C@@H](C)[C@H](OC(C)=O)[C@@H]1C [RIFAMPIN] | 0.004 µg/mL (≈ 0.00486 µM) | 0.004 µg/mL (≈ 0.00486 µM) | 1.56 µg/mL (≈ 1.9 µM) | 0.004 µg/mL (≈ 0.00486 µM) | 50 µg/mL (≈ 60.8 µM) | 0.002 µg/mL (≈ 0.00243 µM) | < 0.05 µg/mL | 44510 | 16256 | 16250 | –
CC(=O)N[C@@H]1[C@@H](O)[C@H](O)[C@@H](CO)O[C@H]1SC(=S)N(C)C | 31.3 µg/mL (≈ 96.5 µM) | 25 µg/mL (≈ 77.1 µM) | > 100 µg/mL | > 100 µg/mL | > 100 µg/mL | > 100 µg/mL | > 100 µg/mL | 188 | 242 | 28 | MIC [18]: 6.25 µg/mL (≈ 19.3 µM); MIC [19]: 6.25 µg/mL (≈ 19.3 µM); MIC [20]: 6.25 µg/mL (≈ 19.3 µM); MIC [21]: 6.25 µg/mL (≈ 19.3 µM); MIC [22]: 6.25 µg/mL (≈ 19.3 µM); MIC [23]: 6.25 µg/mL (≈ 19.3 µM); MIC [24]: 6.25 µg/mL (≈ 19.3 µM); MIC [25]: 6.25 µg/mL (≈ 19.3 µM); MIC [26]: 12.5 µg/mL (≈ 38.5 µM); MIC [27]: 6.25 µg/mL (≈ 19.3 µM); MIC [28]: 6.25 µg/mL (≈ 19.3 µM); MIC [29]: 6.25 µg/mL (≈ 19.3 µM); MIC [30]: 6.25 µg/mL (≈ 19.3 µM); MIC [31]: 6.25 µg/mL (≈ 19.3 µM); MIC [32]: 6.25 µg/mL (≈ 19.3 µM); MIC [33]: 6.25 µg/mL (≈ 19.3 µM); MIC [34]: 6.25 µg/mL (≈ 19.3 µM); MIC [35]: 6.25 µg/mL (≈ 19.3 µM); MIC [36]: 6.25 µg/mL (≈ 19.3 µM)
CC(=O)N[C@H]1[C@H](OC(C)=O)O[C@H](COC(C)=O)[C@@H](OC(C)=O)[C@@H]1OC(C)=O | > 100 µg/mL | > 100 µg/mL | > 100 µg/mL | – | – | – | – | – | – | – | –
CC[C@@H](CO)NCCN[C@@H](CC)CO [ETHAMBUTOL] | 1.5 µg/mL (≈ 7.34 µM) | 2.5 µg/mL (≈ 12.2 µM) | 12.5 µg/mL (≈ 61.2 µM) | 1.56 µg/mL (≈ 7.64 µM) | > 100 µg/mL | > 100 µg/mL | 3.13 µg/mL (≈ 15.3 µM) | 1434 | 916 | 111 | –
CNC [DIMETHYLAMINE] | > 100 µg/mL | > 100 µg/mL | > 100 µg/mL | – | – | – | – | – | – | – | –
CC(=O)N[C@@H]1[C@@H](O)[C@H](O)[C@@H](CSC(=S)N(C)C)O[C@H]1SC(=S)N(C)C | > 100 µg/mL | 25 µg/mL (≈ 58.5 µM) | > 100 µg/mL | > 100 µg/mL | > 100 µg/mL | > 100 µg/mL | > 100 µg/mL | – | – | – | –
NC[C@H]1O[C@H](O[C@H]2[C@H](O)[C@@H](O[C@H]3O[C@H](CO)[C@@H](O)[C@H](N)[C@H]3O)[C@H](N)C[C@@H]2N)[C@H](O)[C@@H](O)[C@@H]1O [KANAMYCIN] | 0.3 µg/mL (≈ 0.619 µM) | 1.56 µg/mL (≈ 3.22 µM) | 3.13 µg/mL (≈ 6.46 µM) | 1.56 µg/mL (≈ 3.22 µM) | 12.5 µg/mL (≈ 25.8 µM) | 12.5 µg/mL (≈ 25.8 µM) | > 100 µg/mL | – | – | – | –
NCC[C@H](O)C(=O)N[C@@H]1C[C@H](N)[C@@H](O[C@H]2O[C@H](CN)[C@@H](O)[C@H](O)[C@H]2O)[C@H](O)[C@H]1O[C@H]1O[C@H](CO)[C@@H](O)[C@H](N)[C@H]1O [AMIKACIN] | 0.78 µg/mL (≈ 1.33 µM) | 1.75 µg/mL (≈ 2.99 µM) | 1.25 µg/mL (≈ 2.13 µM) | 1.56 µg/mL (≈ 2.66 µM) | 50 µg/mL (≈ 85.4 µM) | 100 µg/mL (≈ 171 µM) | > 100 µg/mL | – | – | – | –
CC(=O)N[C@@H]1[C@@H](O)[C@@H](O)[C@@H](CO)O[C@H]1SC(=S)N(C)C | 25 µg/mL (≈ 77.1 µM) | 12.5 µg/mL (≈ 38.5 µM) | > 100 µg/mL | > 100 µg/mL | > 100 µg/mL | > 100 µg/mL | > 100 µg/mL | – | – | – | –
CN[C@@H]1[C@H](O[C@H]2[C@H](O[C@H]3[C@H](O)[C@@H](O)[C@H](N=C(N)N)[C@@H](O)[C@@H]3N=C(N)N)O[C@@H](C)[C@]2(O)C=O)O[C@@H](CO)[C@H](O)[C@H]1O [STREPTOMYCIN] | 0.2 µg/mL (≈ 0.344 µM) | 0.39 µg/mL (≈ 0.671 µM) | 0.39 µg/mL (≈ 0.671 µM) | 0.39 µg/mL (≈ 0.671 µM) | 50 µg/mL (≈ 86 µM) | 50 µg/mL (≈ 86 µM) | 0.39 µg/mL (≈ 0.671 µM) | 32154 | 18367 | 4282 | –
